The values that follow come from patent publication US11963959B2, “Inhibitors for coronavirus” (Southwest Research Institute, priority 2021, dated 2024).

Like-named read-outs stand apart in the source and are kept apart here.

Data set [1] deals with SARS-CoV-2 (USA-WA1/2020). Description: microbe, parasite or virus in culture. Type of data set: cell-based. The conditions noted are these: for EC50 / EC90: Severe acute respiratory syndrome coronavirus 2, Vero C1008; for SI: selectivity index=CC50/EC50.
The next data set is described as follows: in vitro. Particulars: African green monkey.
The nature of data set [2]: PK studies in mice, subcutaneous twice-a-day dosing, plasma and lung. Type of data set: in vivo. More on the design: Tmax: unit not given here. The conditions noted are these: for AUC / Cmax / half-life: mouse, sc. On the procedure:
In addition to the above, pharmokinetic (PK) studies have been completed on additional representative compounds of the pyyroloquinazolines noted herein. More specifically, pharmokinetic studies were conducted for Compound 8, 7-(2-(fluorobenzyl)-7H-pyrrolo[3,2-f]quinazoline-1,3-diamine having the following structure:
Reference is therefore made to FIG. 8 which provides the animal (mice) compound concentration versus time plots in blood plasma for dosing of Compound 8 at 10 mg/kg, subcutaneous, twice-a-day, at time points 0, 0.5, 1, 2, 4, 8, 12 hours post dose up to 36 hours. FIG. 9 provides the animal (mice) compound concentration versus time plots also for Compound 8 in the lung at 10 mg/kg, subcutaneous, twice-a-day, at time points 0, 0.5, 1, 2, 4, 8, 12 post dose up to 36 hours.
Reference is therefore made to FIG. 10 which provides the animal (mice) compound concentration versus time plots in blood plasma for dosing of Compound 9 at 25 mg/kg, subcutaneous, twice-a-day, at time points 0, 0.5, 1, 2, 4, 8, 12 hours post dose up to 36 hours. FIG. 11 provides the animal (mice) compound concentration versus time plots also for Compound 9 in the lung at 25 mg/kg, subcutaneous, twice-a-day, at time points 0, 0.5, 1, 2, 4, 8, 12 post dose up to 36 hours.
Reference is made to FIG. 12 which provides the animal (mice) compound concentration versus time plots in blood plasma for dosing of Compound 10 at 25 mg/kg, subcutaneous, twice-a-day, at time points 0, 0.5, 1, 2, 4, 8, 12 hours post dose up to 36 hours. FIG. 13 provides the animal (mice) compound concentration versus time plots also for Compound 10 in the lung at 25 mg/kg, subcutaneous, twice-a-day, at time points 0, 0.5, 1, 2, 4, 8, 12 hours post dose up to 36 hours.
Reference is made to FIG. 14 which provides the animal (mice) compound concentration versus time plots in blood plasma for dosing of Compound 11 at 25 mg/kg, subcutaneous, twice-a-day, at time points 0, 0.5, 1, 2, 4, 8, 12 hours post dose up to 36 hours. FIG. 15 provides the animal (mice) compound concentration versus time plots also for Compound 11 in the lung at 25 mg/kg, subcutaneous, twice-a-day, at time points 0, 0.5, 1, 2, 4, 8, 12 hours post does up to 36 hours.
Reference is made to FIG. 16 which provides the animal (mice) compound concentration versus time plots in blood plasma for dosing of Compound 12 at 10 mg/kg, subcutaneous, twice-a-day, at time points 0, 0.5, 1, 2, 4, 8, 12 hours post dose up to 36 hours. FIG. 17 provides the animal (mice) compound concentration versus time plots also for Compound 12 in the lung at 10 mg/kg, subcutaneous, twice-a-day, at time points 0, 0.5, 1, 2, 4, 8, 12 hours post dose up to 36 hours.

The mark [3] stands for this setting: Table 1, SARS-CoV-2 strain, VeroE6, two biological replicates and 8 technical replicates, read-out: EC50.
[4] abbreviates: Table 1, SARS-CoV-2 strain, VeroE6, two biological replicates and 8 technical replicates, read-out: EC90.
The mark [5] stands for this setting: Table 2, SARS-CoV-2 strain, VeroE6, read-out: EC50.
[6] abbreviates: Table 2, SARS-CoV-2 strain, VeroE6, read-out: EC90.
[7] abbreviates: Table 7, SARS-CoV-2 strain, VeroE6, read-out: EC50.
[8] abbreviates: Table 7, SARS-CoV-2 strain, VeroE6, read-out: EC90.
Where [9] appears, read: footnote of PK table, read-out: EC50.
The mark [10] stands for this setting: footnote of PK table, read-out: EC90.
Setting [11] is: 10 mg/kg subcutaneous twice-a-day.
Where [12] appears, read: lung, 10 mg/kg subcutaneous twice-a-day.
[13] abbreviates: plasma, 10 mg/kg subcutaneous twice-a-day.
Setting [14] is: 25 mg/kg subcutaneous twice-a-day.
[15] abbreviates: lung, 25 mg/kg subcutaneous twice-a-day.
Setting [16] is: plasma, 25 mg/kg subcutaneous twice-a-day.

Turning to `Nc1nc(N)c2c(ccc3c2ccn3Cc2ccccc2C(F)(F)F)n1` [Compound 1, 7-(2-(trifluoromethyl)benzyl)-7H-pyrrolo[3,2-f]quinazoline-1,3-diamine], in data set [1], the concentration giving a half-maximal response (EC50) came out at 30 ± 10 nM and the EC90 stood at 70 ± 30 nM. In data set [1] (Table 1), the SI came out at 66.8. In “in vitro”, this molecule registered a CC50 of 2000 ± 250 nM.
In the case of `Cc1ccccc1Cn1ccc2c3c(N)nc(N)nc3ccc21` [Compound 2, 7-(2-methylbenzyl)-7H-pyrrolo[3,2-f]quinazoline-1,3-diamine], the EC50 in data set [1] (setting [3]) came to 20 ± 4 nM. The EC90 in data set [1] (setting [4]) came out at 32 ± 50 nM. In data set [1] (Table 1), this molecule registered an SI of 245. The molecule further had a CC50 in “in vitro” of 4940 ± 550 nM.
In the same order, the values of `Cc1cc2c3c(N)nc(N)nc3ccc2n1Cc1ccc(C#N)cc1` [Compound 3, 4-((1,3-diamino-8-methyl-7H-pyrrolo[3,2-f]quinazolin-7-yl)methyl)benzonitrile] are 13 ± 5 nM, 30 ± 20 nM, 477.3 and 6410 ± 700 nM.
Take `C=CCn1ccc2c3c(N)nc(N)nc3ccc21` [Compound 4, 7-allyl-7H-pyrrolo[3,2-f]quinazoline-1,3-diamine]: the EC50 in data set [1] (setting [3]) was found to be 470 ± 210 nM. Besides, the EC90 in data set [1] (setting [4]) amounted to 850 ± 460 nM. Also, in data set [1] (Table 1), the SI is over 63.8. In addition, the CC50 in the data set “in vitro” was over 30000 nM.
With `O=C(c1sc(-c2ccccc2)nc1-c1ccccc1)N1C[C@H]2CNC[C@H]2C1` [Compound 5, (2,4-diphenylthiazol-5-yl)((3aR,6aS)-hexahydropyrrolo[3,4-c]pyrrol-2(1H)-yl)methanone], the EC50 in data set [1] (setting [5]) turned out to be 8300 nM. Also, the concentration for an effect of 90% (EC90) in data set [1] (setting [6]) is 75000 nM. In data set [1] (Table 2), this molecule yielded an SI of 9.6. Further, the CC50 in “in vitro” is 79700 nM.
As to `O=C(c1sc(-c2ccccc2)nc1-c1ccc(Cl)cc1)N1C[C@H]2CNC[C@H]2C1` [Compound 6, (4-(4-chlorophenyl)-2-phenylthiazol-5-yl)((3aR,6aS)-hexahydropyrrolo[3,4-c]pyrrol-2(1H)-yl)methanone], the EC50 in data set [1] (setting [5]) came to 4200 nM. Moreover, in data set [1] (setting [6]), the EC90 worked out at 13300 nM. The molecule also gave an SI in data set [1] (Table 2) of over 4.0. The molecule also returned a CC50 in “in vitro” of 17100 nM.
Consider `O=C(c1sc(-c2ccc(Cl)cc2)nc1-c1ccccc1)N1C[C@H]2CNC[C@H]2C1` [Compound 7, (2-(4-chlorophenyl)-4-phenylthiazol-5-yl)((3aR,6aS)-hexahydropyrrolo[3,4-c]pyrrol-2(1H)-yl)methanone], for which the EC50 in data set [1] (setting [5]) was 4700 nM. The EC90 in data set [1] (setting [6]) came out at 7960 nM. Moreover, the SI in data set [1] (Table 2) is on record as 2.3. The CC50 in the data set “in vitro” came to 11000 nM.
Regarding `Nc1nc(N)c2c(ccc3c2ccn3Cc2ccccc2F)n1` [Compound 8], the EC50 in data set [1] (setting [7]) was 50 ± 31 nM. For the same molecule, the EC90 in data set [1] (setting [8]) is 160 ± 142 nM. For the same molecule, the EC50 in data set [1] (setting [9]) came to 0.0246 µg/mL. In data set [1] (setting [10]), the EC90 came to 0.0799 µg/mL. Besides, the SI in data set [1] (Table 7) is recorded as 98. In addition, the tolerability entry in data set [2] (setting [11]) was “relatively well-tolerated”. Also, in data set [2] (setting [12]), the “Time > EC90” value worked out at 98.3%, the Tmax is 98.3, the exposure (AUC) is 13000 ng·h/mL and the highest level (Cmax) was 4140 ng/mL. In data set [2] (setting [12]), the half-life was 3.74 h. In data set [2] (setting [13]), the AUC turned out to be 2140 ng·h/mL, the highest level (Cmax) was 675 ng/mL, the half-life was 3.1 h and the “Time > EC90” value is reported as 65%. The Tmax in data set [2] (setting [13]) is reported as 1.4. For the same molecule, in the data set “in vitro”, the CC50 came out at 4890 ± 4700 nM.
For `Nc1nc(N)c2c(ccc3c2ccn3Cc2cccnc2)n1` [Compound 9, 7-(pyridin-3-ylmethyl)-7H-pyrrolo[3,2-f]quinazoline-1,3-diamine], the EC50 in data set [1] (setting [7]) came out at 160 ± 61 nM. Also, the EC90 in data set [1] (setting [8]) turned out to be 360 ± 193 nM. Also, the EC50 in data set [1] (setting [9]) was 0.058 µg/mL. The 90% effect concentration (EC90) in data set [1] (setting [10]) came to 0.142 µg/mL. This molecule registered an SI in data set [1] (Table 7) of over 187. The tolerability result in data set [2] (setting [14]) is recorded as “relatively well-tolerated”. In data set [2] (setting [15]), the “Time > EC90” value is given as 73%, the Tmax turned out to be 1.9, the AUC turned out to be 12400 ng·h/mL and the Cmax is 3320 ng/mL. Besides, the half-life in data set [2] (setting [15]) was 2.8 h. In addition, in data set [2] (setting [16]), the AUC worked out at 1190 ng·h/mL, the highest level (Cmax) was 365 ng/mL, the half-life was 2.1 h and the “Time > EC90” value came out at 55%. Further, in data set [2] (setting [16]), the Tmax was 1.6. The molecule further showed a CC50 in “in vitro” of over 30000 nM.
Consider `Nc1nc(N)c2c(ccc3c2ccn3Cc2ccncc2)n1` [Compound 10, 7-(pyridin-4-ylmethyl)-7H-pyrrolo[3,2-f]quinazoline-1,3-diamine], for which, in data set [1] (setting [7]), the EC50 was 80 ± 12 nM. Further, in data set [1] (setting [8]), the EC90 is 240 ± 110 nM. The EC50 in data set [1] (setting [9]) is 0.0813 µg/mL. For the same molecule, in data set [1] (setting [10]), the 90% effect concentration (EC90) worked out at 0.221 µg/mL. Besides, in data set [1] (Table 7), the SI is reported as over 375. In addition, the tolerability entry in data set [2] (setting [14]) is on record as “relatively well-tolerated”. In data set [2] (setting [15]), the “Time > EC90” value came to 63%, the Tmax was determined as 1.2, the AUC was 7820 ng·h/mL and the Cmax worked out at 2910 ng/mL. Besides, the half-life in data set [2] (setting [15]) was 2.7 h. Moreover, in data set [2] (setting [16]), the AUC turned out to be 1600 ng·h/mL, the Cmax is 678 ng/mL, the half-life was 2.1 h and the “Time > EC90” value is 44%. In data set [2] (setting [16]), the Tmax turned out to be 1.2. Further, the CC50 in the data set “in vitro” is over 30000 nM.
Take `Nc1nc(N)c2c(ccc3c2ccn3Cc2ccccn2)n1` [Compound 11, 7-(pyridin-2-ylmethyl)-7H-pyrrolo[3,2-f]quinazoline-1,3-diamine]: in data set [1] (setting [7]), the EC50 was 120 ± 50 nM. For the same molecule, the EC90 in data set [1] (setting [8]) came out at 360 ± 230 nM. Also, the EC50 in data set [1] (setting [9]) was determined as 0.0435 µg/mL. For the same molecule, the EC90 in data set [1] (setting [10]) came out at 0.142 µg/mL. The SI in data set [1] (Table 7) was 128. Also, the tolerability result in data set [2] (setting [14]) was “relatively well-tolerated”. Besides, in data set [2] (setting [15]), the “Time > EC90” value is given as 85%, the Tmax worked out at 1.28, the AUC came out at 14600 ng·h/mL and the Cmax is 3270 ng/mL. This molecule showed a half-life in data set [2] (setting [15]) of 3.3 h. In data set [2] (setting [16]), the AUC turned out to be 1170 ng·h/mL, the Cmax is 348 ng/mL, the half-life is 2.6 h and the “Time > EC90” value is recorded as 45%. The Tmax in data set [2] (setting [16]) is recorded as 1.6. Further, the CC50 in the data set “in vitro” worked out at 15500 ± 10600 nM.
Regarding `Nc1nc(N)c2c(ccc3c2ccn3CC2CCCCC2)n1` [Compound 12, 7-(cyclohexylmethyl)-7H-pyrrolo[3,2-f]quinazoline-1,3-diamine], the EC50 in data set [1] (setting [7]) is 120 ± 87 nM. For the same molecule, in data set [1] (setting [8]), the EC90 was determined as 320 ± 320 nM. Further, the EC50 in data set [1] (setting [9]) was 0.0177 µg/mL. In addition, the EC90 in data set [1] (setting [10]) came to 0.0325 µg/mL. In data set [1] (Table 7), the SI was 41. Moreover, the tolerability result in data set [2] (setting [11]) is reported as “relatively well-tolerated”. In data set [2] (setting [12]), the “Time > EC90” value stood at 100%, the Tmax was determined as 1.4, the AUC amounted to 34100 ng·h/mL and the Cmax turned out to be 10100 ng/mL. In addition, the half-life in data set [2] (setting [12]) was 3.1 h. Moreover, in data set [2] (setting [13]), the AUC was 968 ng·h/mL, the Cmax was determined as 348 ng/mL, the half-life was 4.2 h and the “Time > EC90” value is given as 64%. Further, the Tmax in data set [2] (setting [13]) stood at 1.4. Moreover, the CC50 in “in vitro” turned out to be 4910 ± 200 nM.

In general, EC50 refers to the concentration that produces a half-maximal response. The term EC90 denotes the concentration at which the effect reaches the 90% level. Usually AUC stands for the area under the concentration-time curve, a measure of exposure. By Cmax is commonly meant the peak of the concentration-time curve. As a reminder, the half-life is the time needed for the level to fall by half in the phase considered.
